Data as given in US10952436B2, “Microbiocidal quinoline (thio)carboxamide derivatives” (SYNGENTA PARTICIPATIONS AG, priority 2017, dated 2021).

How the values were obtained:
Type in all cases: cell-based
[1] = system: Botryotinia fuckeliana (Botrytis cinerea); assay: Botryotinia fuckeliana (Botrytis cinerea)/Liquid Culture (Gray Mould); conditions: 200 ppm, liquid culture, compared to untreated control, 3-4 days after application, read-out: control of Botryotinia fuckeliana
[2] = system: Magnaporthe grisea (Pyricularia oryzae); assay: microbe, parasite or virus in culture; conditions: read-out: control of Magnaporthe grisea
Fusarium culmorum = assay: microbe, parasite or virus in culture; conditions: read-out: control of Fusarium culmorum
[3] = system: Monographella nivalis (Microdochium nivale); assay: Monographella nivalis (Microdochium nivale)/Liquid Culture (Foot Rot Cereals); conditions: 200 ppm, liquid culture, compared to untreated control, 4-5 days after application, read-out: control of Monographella nivalis
[4] = system: Glomerella lagenarium (Colletotrichum lagenarium); assay: Glomerella lagenarium (Colletotrichum lagenarium)/Liquid Culture (Anthracnose); conditions: Colletotrichum orbiculare; 200 ppm; liquid culture, compared to untreated control, 3-4 days after application; read-out: control of Glomerella lagenarium

Measured: inhibition of growth at 200 ppm

C[C@@](Cc1ccccc1)(CC(F)(F)F)C(=O)Nc1cnc2c(F)c(F)ccc2c1 [Compound F-16, (2R)-2-benzyl-N-(7,8-difluoro-3-quinolyl)-4,4,4-trifluoro-2-methyl-butanamide]
≥ 80%: all assays above

C#CCC(Cc1ccccc1)C(=O)Nc1cnc2c(F)cccc2c1C (centres unmarked) [Compound E-95]
not listed: [2]
≥ 80%: all other assays above

CC(CCC(F)F)(Cc1ccccc1)C(=O)Nc1cnc2c(F)cccc2c1 (centres unmarked) [Compound E-34, 2-benzyl-5,5-difluoro-N-(8-fluoro-3-quinolyl)-2-methyl-pentanamide]
not listed: [3]
≥ 80%: all other assays above

CC(C)CC(C)(Cc1cccc(F)c1)C(=O)Nc1cnc2c(F)cccc2c1 (centres unmarked) [Compound E-7, 2-[(3-fluorophenyl)methyl]-N-(8-fluoro-3-quinolyl)-2,4-dimethyl-pentanamide]
≥ 80%: all assays above

C=C(CC(C)(Cc1ccccc1)C(=O)Nc1cnc2c(F)cccc2c1)C(F)(F)F (centres unmarked) [Compound E-23, 2-benzyl-N-(8-fluoro-3-quinolyl)-2-methyl-4-(trifluoromethyl)pent-4-enamide]
≥ 80%: all assays above

C=C(C)CC(C)(Cc1ccccc1)C(=O)Nc1cnc2ccc(OC)cc2c1 (centres unmarked) [Compound E-62, 2-benzyl-N-(6-methoxy-3-quinolyl)-2,4-dimethyl-pent-4-enamide]
≥ 80%: [3]

C#CCC(C)(Cc1ccccc1)C(=O)Nc1cnc2c(F)cccc2c1C (centres unmarked) [Compound E-3, 2-benzyl-N-(8-fluoro-4-methyl-3-quinolyl)-2-methyl-pent-4-ynamide]
not listed: [2]
≥ 80%: all other assays above

Cc1cccc2cc(NC(=O)[C@@](C)(Cc3ccccc3)CC(F)(F)F)cnc12 [Compound F-17, (2S)-2-benzyl-4,4,4-trifluoro-2-methyl-N-(8-methyl-3-quinolyl)butanamide]
≥ 80%: all assays above

Cc1cccc2cc(NC(=O)[C@](C)(Cc3ccccc3)CC(F)(F)F)cnc12 [Compound F-18, (2R)-2-benzyl-4,4,4-trifluoro-2-methyl-N-(8-methyl-3-quinolyl)butanamide]
≥ 80%: all assays above

CON(C(=O)C(C)(Cc1ccccc1)CC(C)C)c1cnc2c(F)cccc2c1 (centres unmarked) [Compound E-61, 2-benzyl-N-(8-fluoro-3-quinolyl)-N-methoxy-2,4-dimethyl-pentanamide]
≥ 80%: all assays above

O=C(Nc1cnc2ccccc2c1)C(Cc1ccccc1)CC(F)(F)F (centres unmarked) [Compound E-79, 2-benzyl-4,4,4-trifluoro-N-(3-quinolyl)butanamide]
not listed: [3]
≥ 80%: all other assays above
